PubChem BioAssay AID248 (DTP/NCI, 2004)
Several values for one entry are separate records, joined by “and”; a condition that tells them apart may be missing. Identical values can stand only once. Toxic doses and inconclusive results are not listed.

Test system: L1210 leukemia ip in BDF1 mice, survival T/C
Assay: NCI In Vivo Anticancer Drug Screen. Data for tumor model L1210 Leukemia (intraperitoneal) in B6D2F1 (BDF1) mice
Conditions: endpoint: mean survival time, higher = longer survival
Summary of the method: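 Read-out is survival time, reported as the treated-group measurement over the vehicle-control measurement.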

[1] = dose: 100.0 mg/kg/injection, schedule: Q01DX009 (ip), vehicle: Klucel (hydroxypropylcellulose) (HPC)
[2] = dose: 100.0 mg/kg/injection, schedule: Q04DX003 (ip), vehicle: Klucel (hydroxypropylcellulose) (HPC)
[3] = dose: 200.0 mg/kg/injection, schedule: Q01DX009 (ip), vehicle: Klucel (hydroxypropylcellulose) (HPC)
[4] = dose: 200.0 mg/kg/injection, schedule: Q04DX003 (ip), vehicle: Klucel (hydroxypropylcellulose) (HPC)
[5] = dose: 100.0 mg/kg/injection, schedule: Q01DX001 (ip), vehicle: saline
[6] = dose: 200.0 mg/kg/injection, schedule: Q01DX001 (ip), vehicle: saline
[7] = dose: 400.0 mg/kg/injection, schedule: Q01DX001 (ip), vehicle: saline
[8] = dose: 400.0 mg/kg/injection, schedule: Q04DX003 (ip), vehicle: Klucel (hydroxypropylcellulose) (HPC)
[9] = dose: 100.0 mg/kg/injection, schedule: Q01DX009 (ip), vehicle: saline
[10] = dose: 200.0 mg/kg/injection, schedule: Q01DX009 (ip), vehicle: saline
[11] = dose: 400.0 mg/kg/injection, schedule: Q01DX009 (ip), vehicle: saline
[12] = dose: 50.0 mg/kg/injection, schedule: Q01DX009 (ip), vehicle: saline with Tween-80
[13] = dose: 100.0 mg/kg/injection, schedule: Q01DX009 (ip), vehicle: saline with Tween-80
[14] = dose: 200.0 mg/kg/injection, schedule: Q01DX009 (ip), vehicle: saline with Tween-80

Structure (SMILES): CCCCCCCCCC(=O)OCC1OC(=O)C(C)N(C)C(=O)CN(C)C(=O)C2C(=O)CC(C)N2C(=O)C(C(C)C)NC(=O)C1NC(=O)c1c2nc3c(C(=O)NC4C(=O)NC(C(C)C)C(=O)N5C(C)CC(OC(=O)CCCCCCCCC)C5C(=O)N(C)CC(=O)N(C)C(C(C)C)C(=O)OC4C)ccc(C)c3oc-2c(C)c(=O)c1N (stereo unspecified)
- T/C (dose: 0.2 mg/kg/injection, schedule: Q01DX009 (ip), vehicle: Klucel (hydroxypropylcellulose) (HPC)): 92 % of control
- T/C (dose: 0.4 mg/kg/injection, schedule: Q01DX009 (ip), vehicle: Klucel (hydroxypropylcellulose) (HPC)): 94 % of control
- T/C (dose: 0.6 mg/kg/injection, schedule: Q04DX003 (ip), vehicle: Klucel (hydroxypropylcellulose) (HPC)): 97 % of control
- T/C (dose: 0.8 mg/kg/injection, schedule: Q01DX009 (ip), vehicle: Klucel (hydroxypropylcellulose) (HPC)): 96 % of control
- T/C (dose: 1.2 mg/kg/injection, schedule: Q04DX003 (ip), vehicle: Klucel (hydroxypropylcellulose) (HPC)): 95 % of control
- T/C (dose: 1.6 mg/kg/injection, schedule: Q01DX001 (ip), vehicle: Klucel (hydroxypropylcellulose) (HPC)): 92 % of control
- T/C (dose: 1.6 mg/kg/injection, schedule: Q01DX009 (ip), vehicle: Klucel (hydroxypropylcellulose) (HPC)): 92 % of control
- T/C (dose: 2.4 mg/kg/injection, schedule: Q04DX003 (ip), vehicle: Klucel (hydroxypropylcellulose) (HPC)): 90 % of control
- T/C (dose: 3.2 mg/kg/injection, schedule: Q01DX001 (ip), vehicle: Klucel (hydroxypropylcellulose) (HPC)): 92 % of control
- T/C (dose: 3.2 mg/kg/injection, schedule: Q01DX009 (ip), vehicle: Klucel (hydroxypropylcellulose) (HPC)): 89 % of control
- T/C (dose: 4.8 mg/kg/injection, schedule: Q04DX003 (ip), vehicle: Klucel (hydroxypropylcellulose) (HPC)): 91 % of control
- T/C (dose: 6.4 mg/kg/injection, schedule: Q01DX001 (ip), vehicle: Klucel (hydroxypropylcellulose) (HPC)): 91 % of control
- T/C (dose: 9.6 mg/kg/injection, schedule: Q04DX003 (ip), vehicle: Klucel (hydroxypropylcellulose) (HPC)): 87 % of control
- T/C (dose: 12.8 mg/kg/injection, schedule: Q01DX001 (ip), vehicle: Klucel (hydroxypropylcellulose) (HPC)): 89 % of control

Structure (SMILES): CCOC(=O)Cc1cc(O)ccc1O
- T/C (dose: 100.0 mg/kg/injection, schedule: Q01DX001 (ip), vehicle: saline with Tween-80): 109 % of control
- T/C (dose: 200.0 mg/kg/injection, schedule: Q01DX001 (ip), vehicle: saline with Tween-80): 89 % of control
- T/C (dose: 400.0 mg/kg/injection, schedule: Q01DX001 (ip), vehicle: saline with Tween-80): 91 % of control

Structure (SMILES): Cc1[nH]c(=O)nc(Br)c1[N+](=O)[O-]
- T/C (dose: 50.0 mg/kg/injection, schedule: Q01DX009 (ip), vehicle: Klucel (hydroxypropylcellulose) (HPC)): 101 % of control
- T/C [1]: 107 % of control
- T/C [2]: 97 % of control
- T/C [3]: 98 % of control
- T/C [4]: 95 % of control

Structure (SMILES): Cc1ccc2c(C)c3ccc4ccccc4c3c[n+]2c1
- T/C (dose: 3.13 mg/kg/injection, schedule: Q01DX009 (ip), vehicle: saline with Tween-80): 98 % of control
- T/C (dose: 6.2 mg/kg/injection, schedule: Q04DX003 (ip), vehicle: Klucel (hydroxypropylcellulose) (HPC)): 111 % of control
- T/C (dose: 6.25 mg/kg/injection, schedule: Q01DX009 (ip), vehicle: saline with Tween-80): 107 % of control
- T/C (dose: 12.5 mg/kg/injection, schedule: Q01DX009 (ip), vehicle: saline with Tween-80): 107 % of control and 113 % of control
- T/C (dose: 12.5 mg/kg/injection, schedule: Q04DX003 (ip), vehicle: Klucel (hydroxypropylcellulose) (HPC)): 104 % of control
- T/C (dose: 25.0 mg/kg/injection, schedule: Q04DX003 (ip), vehicle: Klucel (hydroxypropylcellulose) (HPC)): 111 % of control
- T/C (dose: 50.0 mg/kg/injection, schedule: Q04DX003 (ip), vehicle: Klucel (hydroxypropylcellulose) (HPC)): 117 % of control
- T/C [5]: 123 % of control
- T/C [6]: 104 % of control
- T/C [7]: 104 % of control

Structure (SMILES): S=C(NCc1ccccc1)[S][Sn]([S]C(=S)NCc1ccccc1)([c]1ccccc1)[c]1ccccc1
- T/C (dose: 5.0 mg/kg/injection, schedule: Q01DX001 (ip), vehicle: steriod suspending solution): 98 % of control
- T/C (dose: 10.0 mg/kg/injection, schedule: Q01DX001 (ip), vehicle: steriod suspending solution): 97 % of control
- T/C (dose: 20.0 mg/kg/injection, schedule: Q01DX001 (ip), vehicle: steriod suspending solution): 106 % of control

Structure (SMILES): COc1ccc2c(c1)CCC1=C2CCC2(C)C(=O)OC(=O)C12 (stereo unspecified)
- T/C [1]: 103 % of control
- T/C [2]: 102 % of control
- T/C [3]: 97 % of control
- T/C [4]: 93 % of control
- T/C (dose: 400.0 mg/kg/injection, schedule: Q01DX009 (ip), vehicle: Klucel (hydroxypropylcellulose) (HPC)): 101 % of control
- T/C [8]: 111 % of control

Structure (SMILES): CC(=NC(Cc1ccccc1)C(=O)O)NC(Cc1ccccc1)C(=O)O (stereo unspecified)
- T/C [9]: 106 % of control
- T/C [10]: 101 % of control
- T/C [11]: 100 % of control

Structure (SMILES): OC1c2ccccc2-c2ccccc21
- T/C (dose: 100.0 mg/kg/injection, schedule: Q04DX003 (ip), vehicle: saline): 91 % of control
- T/C (dose: 200.0 mg/kg/injection, schedule: Q04DX003 (ip), vehicle: saline): 93 % of control
- T/C (dose: 400.0 mg/kg/injection, schedule: Q04DX003 (ip), vehicle: saline): 93 % of control

Structure (SMILES): COc1ccc(OC)c(/C=C(/C)[N+](=O)[O-])c1
- T/C [12]: 109 % of control
- T/C [13]: 109 % of control
- T/C [2]: 97 % of control
- T/C [14]: 109 % of control
- T/C [4]: 108 % of control

Structure (SMILES): O=c1oc(-c2ccccc2)c(-c2ccccc2)o1
- T/C (dose: 100.0 mg/kg/injection, schedule: Q04DX002 (ip), vehicle: other): 100 % of control
- T/C (dose: 200.0 mg/kg/injection, schedule: Q04DX002 (ip), vehicle: other): 103 % of control
- T/C (dose: 400.0 mg/kg/injection, schedule: Q04DX002 (ip), vehicle: other): 96 % of control

Structure (SMILES): O=c1ccnc(/C=C/c2ccc(Cl)cc2)[nH]1
- T/C [14]: 87 % of control
- T/C (dose: 400.0 mg/kg/injection, schedule: Q01DX009 (ip), vehicle: saline with Tween-80): 96 % of control

Structure (SMILES): CC(CC12CC3CC(CC(C3)C1)C2)NN (stereo unspecified)
- T/C (dose: 25.0 mg/kg/injection, schedule: Q04DX002 (ip), vehicle: Klucel (hydroxypropylcellulose) (HPC)): 101 % of control
- T/C (dose: 50.0 mg/kg/injection, schedule: Q04DX002 (ip), vehicle: Klucel (hydroxypropylcellulose) (HPC)): 86 % of control

Structure (SMILES): O=C(O)c1ccc(O)c([N+](=O)[O-])c1
- T/C [9]: 105 % of control
- T/C [2]: 101 % of control
- T/C [10]: 96 % of control
- T/C [4]: 100 % of control
- T/C [11]: 87 % of control
- T/C [8]: 102 % of control

Structure (SMILES): Nc1nc(=S)c2ncn(CN3CCCCC3)c2[nH]1
- T/C (dose: 1.3 mg/kg/injection, schedule: Q01DX Z (ip), vehicle: carboxymethylcellulose (CMC)): 112 % of control
- T/C (dose: 2.0 mg/kg/injection, schedule: Q01DX Z (ip), vehicle: carboxymethylcellulose (CMC)): 123 % of control
- T/C (dose: 3.0 mg/kg/injection, schedule: Q01DX Z (ip), vehicle: carboxymethylcellulose (CMC)): 154 % of control
- T/C (dose: 3.0 mg/kg/injection, schedule: Q01DX Z (ip), vehicle: saline): 155 % of control
- T/C (dose: 4.5 mg/kg/injection, schedule: Q01DX Z (ip), vehicle: carboxymethylcellulose (CMC)): 151 % of control
- T/C (dose: 4.5 mg/kg/injection, schedule: Q01DX Z (ip), vehicle: saline): 166 % of control
- T/C (dose: 7.0 mg/kg/injection, schedule: Q01DX Z (ip), vehicle: saline): 156 % of control
- T/C (dose: 10.0 mg/kg/injection, schedule: Q01DX Z (ip), vehicle: saline): 156 % of control

Structure (SMILES): Nc1c(Br)cccc1C(=O)O
- T/C [5]: 104 % of control
- T/C [6]: 102 % of control
- T/C [7]: 101 % of control

Structure (SMILES): Cc1cc(NS(=O)(=O)c2ccc(N=Nc3ccc(N)nc3N)cc2)nc(C)n1
- T/C [5]: 102 % of control
- T/C [6]: 105 % of control
- T/C [7]: 100 % of control

Structure (SMILES): C/C(=C\CN1C(=O)CN(C)C1=O)CCC1OC1(C)C (stereo unspecified)
- T/C [5]: 115 % of control
- T/C (dose: 100.0 mg/kg/injection, schedule: Q04DX003 (ip), vehicle: water): 100 % of control
- T/C [6]: 111 % of control
- T/C (dose: 200.0 mg/kg/injection, schedule: Q04DX003 (ip), vehicle: water): 98 % of control
- T/C [7]: 114 % of control
- T/C (dose: 400.0 mg/kg/injection, schedule: Q04DX003 (ip), vehicle: water): 104 % of control

Structure (SMILES): CCCn1ncc(=O)[nH]c1=O
- T/C [12]: 96 % of control
- T/C [13]: 112 % of control
- T/C [14]: 103 % of control

Structure (SMILES): Cn1c(=O)cc(CC(=O)C(=O)O)c2ccccc21
- T/C [5]: 88 % of control
- T/C [6]: 93 % of control
- T/C [7]: 93 % of control
